{
  "source": "patent US11679118B2",
  "about": "“Parasite therapy” (priority 2009, dated 2023)",
  "key": {"[1]": {"test_system": "D. fragilis or B. hominis", "test": "Treatment of patients with D. fragilis and/or B. hominis infection (combined infection), symptoms and overall outcome", "format": "in vivo, Dientamoeba fragilis; Blastocystis hominis", "details": "for outcome of previous treatments: patient with combined B. hominis and D. fragilis infection, 3 different treatments before referral; for stool examination after previous treatments / symptoms after previous treatments: patient, various treatments before referral", "experimental": "In another aspect the present invention relates to triple combinations of drugs. In some circumstances, especially with resistance even triple therapies may need to be combined to effect a cure. […] Again, the treatment requires 1 mg-5 grams/day of each of the components from 1-50 days. Other triple combinations can include iodoquinol, furazolidone and nitazoxanide. Combinations can also include diloxinide furoate, doxycycline and metronidazole in various triple combinations.\n(§1) The patient was brought into the clinic and after bowel preparation a transcolonoscopic infusion of furazolidone, nitazoxanide and secnidazole was carried out.\nThe patient was referred to the Clinic for treatment. Symptoms were quite severe and they were given a combination of four medications including Septrin DS (cotrimoxazole) two times a day, diloxanide furoate 500 mg three times a day and secnidazole 400 mg three times a day together with doxycycline 50 mg two times a day."}, "[2]": {"test_system": "B. hominis", "test": "Treatment of patients with B. hominis infection, follow-up by stool test and symptoms", "format": "in vivo, Blastocystis hominis"}, "[3]": {"test_system": "D. fragilis", "test": "Treatment of patients with D. fragilis infection, follow-up by stool test", "format": "in vivo, Dientamoeba fragilis", "details": "clinical experience and usage; also frequently ineffective as monotherapy", "experimental": "as §1"}, "[4]": {"test_system": "B. hominis", "details": "in Egypt; Rossignol et al 2005; cited from earlier work"}, "[5]": {"test_system": "Giardia lamblia", "test": "Treatment of a patient with chronic Giardiasis, follow-up by stool tests and symptoms", "format": "in vivo", "details": "previous speculative treatment in adequate doses", "excerpt": "A patient with weight loss and diarrhea presented for an endoscopy."}, "[6]": {"details": "person, 400 mg bid for 14 days, at 6 months"}},
  "data": [
    {"smiles": "CCS(=O)(=O)CCn1c([N+](=O)[O-])cnc1C", "note": "[tinidazole]", "values": [
      {"measurement": "outcome of previous treatments", "setting": "[1]", "result": "failed"}
    ]},
    {"smiles": "O=C1OCCN1/N=C/c1ccc([N+](=O)[O-])o1", "note": "[furazolidone]", "values": [
      {"measurement": "stool examination after previous treatments", "setting": "[1]", "result": "ongoing B. hominis and D. fragilis"},
      {"measurement": "symptoms after previous treatments", "setting": "[1]", "result": "improved but then they recurred"}
    ]},
    {"smiles": "CCn1cc(C(=O)O)c(=O)c2cc(F)c(N3CCNCC3)cc21", "note": "[norfloxacin]", "values": [
      {"measurement": "effectiveness in treatment against Blastocystis hominis", "setting": "[2]; clinical experience and usage, also frequently ineffective as monotherapy", "result": "effective"},
      {"measurement": "stool test for B. hominis", "setting": "[2]; [6]", "result": "negative for B. hominis again"},
      {"measurement": "symptoms", "setting": "[2]; [6]", "result": "still asymptomatic"},
      {"measurement": "stool test for B. hominis", "setting": "[2]; person, 400 mg bid for 14 days, follow up at 4 weeks", "result": "negative for B. hominis"},
      {"measurement": "effectiveness in treatment against Dientamoeba fragilis", "setting": "[3]", "result": "effective"}
    ]},
    {"smiles": "CC(=O)Oc1ccccc1C(=O)Nc1ncc([N+](=O)[O-])s1", "note": "[nitazoxanide]", "values": [
      {"measurement": "stool examination after previous treatments", "setting": "[1]", "result": "ongoing B. hominis and D. fragilis"},
      {"measurement": "symptoms after previous treatments", "setting": "[1]", "result": "improved but then they recurred"},
      {"measurement": "effectiveness against Blastocystis hominis", "setting": "[4]", "result": "effective"}
    ]},
    {"smiles": "Cc1ncc([N+](=O)[O-])n1CCO", "note": "[metronidazole]", "values": [
      {"measurement": "outcome of previous therapies", "setting": "[2]; resistant Blastocystis hominis, multiple therapies before referral", "result": "failed"},
      {"measurement": "outcome of previous treatments", "setting": "[1]", "result": "failed"},
      {"measurement": "stool examination after previous treatments", "setting": "[1]", "result": "ongoing B. hominis and D. fragilis"},
      {"measurement": "symptoms after previous treatments", "setting": "[1]", "result": "improved but then they recurred"},
      {"measurement": "Giardia lamblia infection, histologically at endoscopy", "setting": "[5]", "result": "continued to have Giardia lamblia infection"},
      {"measurement": "diarrhea", "setting": "[5]", "result": "did not settle"}
    ]}
  ]
}
